According to ChEMBL document CHEMBL1201862, “PubChem BioAssay data set” (2004):
The source made the active and inactive calls.

Assays:
Assay type in all cases: functional
[1] = test system: T-cell; assay: loss of vesicle association with mouse CD8+ T cells – mouse 2C CD8+ T cells, flow cytometry, dose response (AID 485284)
[2] = biological target: Mu-type opioid receptor (Homo sapiens, UniProt P35372); assay: SAR Analysis of Antagonists of the MOR Receptor using an Image-Based Assay - Set 3. [Related pubchem assays (depositor defined):AID1777, AID1785, AID1786, AID1966, AID2133, AID2136, AID2284, AID2285, AID2420]
[3] = biological target: Delta-type opioid receptor (Homo sapiens, UniProt P41143); assay: SAR Analysis of Antagonists of the DOR Receptor using an Image-Based Assay - Set 3. [Related pubchem assays (depositor defined):AID1777, AID1785];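 note: U2OS cells expressing DOR1 and beta-arrestin GFP stimulated with 100 nM SNC80; imaging of GFP-tagged beta-arrestin moving into spots after receptor activation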
[4] = biological target: T1, Kappa-type opioid receptor (Homo sapiens, UniProt P41145); assay: SAR analysis of small molecule antagonists of the kappa opioid receptor via a luminescent beta-arrestin assay - Set 3. [Related pubchem assays (depositor defined):AID1777, AID1778, AID1785, AID1786, AID1966, AID2133, AID2136, AID2285, AID2495]
[5] = biological target: T1, Kappa-type opioid receptor; assay: SAR analysis of Antagonists of the Kappa Opioid Receptor (KOR) using an Image-Based Assay - Set 4. [Related pubchem assays (depositor defined):AID1777, AID1785]
[6] = biological target: G-protein coupled receptor 35 (Homo sapiens, UniProt Q9HC97); assay: SAR analysis of Antagonists of the GPR35 Receptor using an Image-Based Assay - Set 5. [Related pubchem assays (depositor defined):AID2058, AID2079]
[7] = biological target: G-protein coupled receptor 55 (Homo sapiens, UniProt Q9Y2T6); assay: SAR Analysis of Selective Antagonists of GPR55 using an Image-Based Assay - Set 3. [Related pubchem assays (depositor defined):AID2058, AID2079]
[8] = biological target: Voltage-dependent T-type calcium channel subunit alpha-1H (Homo sapiens, UniProt O95180); assay: human CACNA1H calcium influx blockade – cell-based, synthetic library set 1, calcium flux (AID 493022)
[9] = biological target: Hexokinase (Trypanosoma brucei, UniProt Q38C41); assay: Confirmation assay for inhibitors of Trypanosoma brucei hexokinase 1-Analogue-first series. [Related pubchem assays (depositor defined):AID1430, AID1632, AID2516, AID2560, AID2579, AID2600, AID449725, AID492951]
Sequence of Hexokinase (Q38C41 whole entry): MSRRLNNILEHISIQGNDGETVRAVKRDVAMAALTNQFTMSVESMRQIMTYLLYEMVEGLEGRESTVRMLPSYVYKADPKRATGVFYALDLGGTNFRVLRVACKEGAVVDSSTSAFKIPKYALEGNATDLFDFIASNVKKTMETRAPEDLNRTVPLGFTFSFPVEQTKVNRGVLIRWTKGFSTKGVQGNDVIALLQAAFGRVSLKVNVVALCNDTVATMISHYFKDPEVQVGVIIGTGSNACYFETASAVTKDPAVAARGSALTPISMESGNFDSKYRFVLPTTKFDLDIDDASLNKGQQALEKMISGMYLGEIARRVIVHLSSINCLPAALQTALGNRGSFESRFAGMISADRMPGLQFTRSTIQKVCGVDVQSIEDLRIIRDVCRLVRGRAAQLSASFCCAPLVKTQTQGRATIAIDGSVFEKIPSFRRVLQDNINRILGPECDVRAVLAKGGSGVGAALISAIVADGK

T1 sequence (P41145 whole entry): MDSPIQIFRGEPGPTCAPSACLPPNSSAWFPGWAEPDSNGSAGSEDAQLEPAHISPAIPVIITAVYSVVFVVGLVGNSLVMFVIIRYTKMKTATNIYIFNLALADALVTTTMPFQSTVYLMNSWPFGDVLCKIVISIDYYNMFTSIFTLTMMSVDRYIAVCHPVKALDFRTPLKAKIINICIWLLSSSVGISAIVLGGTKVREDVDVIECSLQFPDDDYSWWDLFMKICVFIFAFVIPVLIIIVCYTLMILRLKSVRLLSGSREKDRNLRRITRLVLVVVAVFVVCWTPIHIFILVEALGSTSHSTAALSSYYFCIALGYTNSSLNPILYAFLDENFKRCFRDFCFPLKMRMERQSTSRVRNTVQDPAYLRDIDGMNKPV
Sequence of Voltage-dependent T-type calcium channel subunit alpha-1H (O95180 whole entry): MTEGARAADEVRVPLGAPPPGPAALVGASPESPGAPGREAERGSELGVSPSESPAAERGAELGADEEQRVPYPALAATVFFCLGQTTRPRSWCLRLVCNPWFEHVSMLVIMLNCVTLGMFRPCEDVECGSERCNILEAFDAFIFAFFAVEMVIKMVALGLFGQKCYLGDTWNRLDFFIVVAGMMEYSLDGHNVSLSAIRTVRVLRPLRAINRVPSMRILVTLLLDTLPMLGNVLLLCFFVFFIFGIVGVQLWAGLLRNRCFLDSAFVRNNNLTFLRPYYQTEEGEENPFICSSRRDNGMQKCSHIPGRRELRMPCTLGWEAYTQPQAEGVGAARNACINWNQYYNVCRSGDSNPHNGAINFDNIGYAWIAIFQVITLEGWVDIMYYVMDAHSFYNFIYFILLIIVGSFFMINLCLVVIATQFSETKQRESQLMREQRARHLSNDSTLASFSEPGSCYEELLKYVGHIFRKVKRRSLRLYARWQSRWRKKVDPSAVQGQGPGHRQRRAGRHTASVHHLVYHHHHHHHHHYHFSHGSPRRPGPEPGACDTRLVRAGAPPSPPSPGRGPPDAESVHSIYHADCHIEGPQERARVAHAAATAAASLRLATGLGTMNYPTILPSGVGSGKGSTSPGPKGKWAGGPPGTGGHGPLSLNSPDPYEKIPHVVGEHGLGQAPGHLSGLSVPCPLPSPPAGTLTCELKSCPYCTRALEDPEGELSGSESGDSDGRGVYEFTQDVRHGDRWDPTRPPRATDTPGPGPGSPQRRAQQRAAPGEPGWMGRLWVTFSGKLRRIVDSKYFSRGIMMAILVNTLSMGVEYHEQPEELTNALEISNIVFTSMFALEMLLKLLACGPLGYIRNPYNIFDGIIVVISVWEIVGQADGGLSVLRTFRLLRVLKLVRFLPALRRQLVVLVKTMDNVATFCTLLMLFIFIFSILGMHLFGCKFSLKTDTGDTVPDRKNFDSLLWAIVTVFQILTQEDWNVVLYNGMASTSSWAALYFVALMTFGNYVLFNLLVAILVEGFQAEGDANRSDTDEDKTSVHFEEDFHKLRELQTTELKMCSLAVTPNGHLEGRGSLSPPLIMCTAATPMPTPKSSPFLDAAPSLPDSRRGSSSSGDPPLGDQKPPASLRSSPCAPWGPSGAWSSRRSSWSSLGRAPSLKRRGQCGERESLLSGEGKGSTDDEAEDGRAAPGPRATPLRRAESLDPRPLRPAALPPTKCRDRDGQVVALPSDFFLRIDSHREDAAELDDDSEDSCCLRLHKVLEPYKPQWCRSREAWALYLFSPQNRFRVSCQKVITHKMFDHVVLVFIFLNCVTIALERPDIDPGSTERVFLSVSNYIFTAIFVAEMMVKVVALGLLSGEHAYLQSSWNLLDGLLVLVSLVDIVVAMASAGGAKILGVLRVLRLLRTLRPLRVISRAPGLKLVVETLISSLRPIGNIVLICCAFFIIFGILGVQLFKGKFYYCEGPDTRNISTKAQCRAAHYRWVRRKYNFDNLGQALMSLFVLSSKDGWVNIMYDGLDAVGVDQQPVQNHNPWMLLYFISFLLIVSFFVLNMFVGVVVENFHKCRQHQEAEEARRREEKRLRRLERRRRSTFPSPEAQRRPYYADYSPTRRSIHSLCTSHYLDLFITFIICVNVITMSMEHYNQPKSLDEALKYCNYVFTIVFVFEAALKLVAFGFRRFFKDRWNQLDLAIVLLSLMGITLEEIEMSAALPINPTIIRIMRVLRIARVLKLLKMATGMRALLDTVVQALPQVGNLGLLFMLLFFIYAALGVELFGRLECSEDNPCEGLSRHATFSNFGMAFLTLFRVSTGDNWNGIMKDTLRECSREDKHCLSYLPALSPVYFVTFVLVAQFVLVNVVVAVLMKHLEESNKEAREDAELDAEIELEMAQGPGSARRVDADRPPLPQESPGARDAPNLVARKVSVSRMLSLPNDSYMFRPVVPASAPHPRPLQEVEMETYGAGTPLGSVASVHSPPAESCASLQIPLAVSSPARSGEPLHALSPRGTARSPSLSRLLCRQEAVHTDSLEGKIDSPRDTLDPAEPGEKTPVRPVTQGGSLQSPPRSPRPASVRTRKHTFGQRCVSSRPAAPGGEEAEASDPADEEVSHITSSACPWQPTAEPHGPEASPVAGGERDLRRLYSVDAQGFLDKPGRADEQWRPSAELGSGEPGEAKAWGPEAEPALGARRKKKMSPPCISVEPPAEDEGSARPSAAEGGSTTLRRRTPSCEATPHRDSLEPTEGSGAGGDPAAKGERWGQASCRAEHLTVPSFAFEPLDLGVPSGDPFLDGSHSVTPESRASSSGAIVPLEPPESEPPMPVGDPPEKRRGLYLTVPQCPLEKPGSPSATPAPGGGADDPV
Sequence of G-protein coupled receptor 55 (Q9Y2T6 whole entry): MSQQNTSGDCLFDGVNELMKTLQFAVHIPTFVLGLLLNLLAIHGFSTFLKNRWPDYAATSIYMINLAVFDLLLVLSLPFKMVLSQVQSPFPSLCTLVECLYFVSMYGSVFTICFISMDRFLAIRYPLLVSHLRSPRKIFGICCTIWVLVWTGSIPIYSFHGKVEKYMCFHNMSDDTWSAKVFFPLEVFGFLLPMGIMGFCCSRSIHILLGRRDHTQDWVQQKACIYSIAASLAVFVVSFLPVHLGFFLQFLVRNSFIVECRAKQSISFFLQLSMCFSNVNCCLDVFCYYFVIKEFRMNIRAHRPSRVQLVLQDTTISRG
Sequence of Delta-type opioid receptor (P41143 whole entry): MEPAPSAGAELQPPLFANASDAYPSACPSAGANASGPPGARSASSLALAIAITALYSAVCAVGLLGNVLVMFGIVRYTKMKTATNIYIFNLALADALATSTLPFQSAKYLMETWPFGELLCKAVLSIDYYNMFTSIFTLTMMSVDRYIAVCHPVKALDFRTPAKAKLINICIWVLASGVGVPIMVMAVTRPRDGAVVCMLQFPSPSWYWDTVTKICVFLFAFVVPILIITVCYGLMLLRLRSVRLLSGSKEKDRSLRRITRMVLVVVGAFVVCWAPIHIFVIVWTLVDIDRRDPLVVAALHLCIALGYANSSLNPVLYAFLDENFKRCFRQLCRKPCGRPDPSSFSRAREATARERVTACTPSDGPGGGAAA
Sequence of Mu-type opioid receptor (P35372 whole entry): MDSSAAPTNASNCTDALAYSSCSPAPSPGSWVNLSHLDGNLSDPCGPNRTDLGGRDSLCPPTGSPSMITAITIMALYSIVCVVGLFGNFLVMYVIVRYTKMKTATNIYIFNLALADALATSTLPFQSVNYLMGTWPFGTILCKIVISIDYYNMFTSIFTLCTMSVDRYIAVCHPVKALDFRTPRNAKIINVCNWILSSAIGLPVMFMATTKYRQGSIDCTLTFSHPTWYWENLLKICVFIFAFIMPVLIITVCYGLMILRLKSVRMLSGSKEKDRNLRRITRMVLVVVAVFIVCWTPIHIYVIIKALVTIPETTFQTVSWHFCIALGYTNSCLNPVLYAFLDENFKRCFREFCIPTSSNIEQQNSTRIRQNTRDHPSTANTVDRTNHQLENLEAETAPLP
Sequence of G-protein coupled receptor 35 (Q9HC97 whole entry): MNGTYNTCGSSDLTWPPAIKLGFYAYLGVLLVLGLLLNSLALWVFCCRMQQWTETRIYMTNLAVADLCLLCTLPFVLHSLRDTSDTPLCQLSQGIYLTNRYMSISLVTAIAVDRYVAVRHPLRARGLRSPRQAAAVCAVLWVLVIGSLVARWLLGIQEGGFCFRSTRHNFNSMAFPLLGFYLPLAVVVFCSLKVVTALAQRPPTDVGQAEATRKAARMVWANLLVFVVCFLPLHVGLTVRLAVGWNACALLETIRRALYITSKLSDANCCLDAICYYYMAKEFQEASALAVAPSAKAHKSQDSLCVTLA

COc1ccc(S(=O)(=O)N2CCCCC2)cc1NC(=O)c1cnc(C)cn1
EC50 [1]: 558 nM (active)

Cc1ccnc2c1n1cccc1c(=O)n2CC(=O)NCCCN1CCN(c2ccccc2)CC1
IC50 [2]: 22.5 µM (inactive)
IC50 [3]: > 32 µM (inactive)
IC50 [4]: 4.95 µM (active)
IC50 [5]: 2.56 µM (active)

COC(=O)c1cnn(-c2ccc(F)cc2F)c1/C=N/NC(=S)Nc1ccccc1
IC50 [6]: 379 nM (active)
IC50 [7]: > 32 µM (inactive)

CC(Oc1ccccc1)C(=O)Nc1nnc(-c2ccc3c(c2)CCCC3)o1 (centres undefined)
EC50 [8]: 1.3 µM (active)

O=C(Nc1cc(Cl)ccc1C(=O)O)c1ccsc1
IC50 [9]: > 25 µM (inactive)
